Reference: patent US4327097A, “Novel penicillins” (Toyama Chemical Co., Ltd., priority 1974, dated 1982)
Values after ≈ are worked out from the molar mass of the structure shown.

What was measured:
Escherichia coli NIHJ = assay: MIC, plate method, standard strains; type: cell-based; conditions: Table 4, standard strain; unit assumed
In short: (§1)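 Heart infusion agar, pH 7.4, plate method. Inoculum: 10^4 cells/plate (10^6 cells/ml). Read-out: MIC.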

Klebsiella pneumoniae [1] = assay: MIC, plate method, standard strains; type: cell-based; conditions: Table 4, standard strain; unit assumed
In short: as §1

Proteus vulgaris 3027 = assay: MIC, plate method, standard strains; type: cell-based; conditions: Table 4, standard strain; unit assumed
In short: as §1

[2] = system: Pseudomonas aeruginosa I.F.O.; assay: MIC, plate method, standard strains; type: cell-based; conditions: Table 4, standard strain; unit assumed
In short: as §1

[3] = system: Staphylococcus aureus 209p; assay: MIC, plate method, standard strains; type: cell-based; conditions: Table 4, standard strain; unit assumed
In short: as §1

Staphylococcus aureus = assay: MIC against clinical isolates; type: cell-based; conditions: Table 6-1, clinical isolate; unit assumed
Escherichia coli = assay: MIC against clinical isolates; type: cell-based; conditions: Table 6-2, clinical isolate; unit assumed
Pseudomonas aeruginosa = assay: MIC against clinical isolates; type: cell-based; conditions: unit assumed; for MIC Pseudomonas aeruginosa GN / MIC Pseudomonas aeruginosa GN4 / MIC Pseudomonas aeruginosa GN 82 / MIC Pseudomonas aeruginosa GN 221 / MIC Pseudomonas aeruginosa GN 376 / MIC Pseudomonas aeruginosa GN 1035 / MIC Pseudomonas aeruginosa GN 1091 / MIC Pseudomonas aeruginosa GN 2565: Table 6-3, clinical isolate; for MIC Pseudomonas aeruginosa GN: strain number not given; for MIC Pseudomonas aeruginosa S-1: Table 6-4, clinical isolate
Klebsiella pneumoniae [4] = assay: MIC against clinical isolates; type: cell-based; conditions: Table 6-4, clinical isolate; unit assumed
Proteus mirabilis = assay: MIC against clinical isolates; type: cell-based; conditions: Table 6-5, clinical isolate; unit assumed
Proteus morganii = assay: MIC against clinical isolates; type: cell-based; conditions: Table 6-5, clinical isolate; unit assumed
Proteus vulgaris = assay: MIC against clinical isolates; type: cell-based; conditions: Table 6-5, clinical isolate; unit assumed
Proteus rettgeri = assay: MIC against clinical isolates; type: cell-based; conditions: Table 6-5, clinical isolate; unit assumed
[5] = molecular target: β-lactamase, Escherichia freundii GN 346 (Citrobacter freundii, UniProt Q46041); assay: Resistant activity against β-lactamase, iodometric assay; type: biochemical; conditions: control Cephalorizine = 100
β-lactamase, Escherichia freundii GN 346, sequence (Q46041 entry or part of it): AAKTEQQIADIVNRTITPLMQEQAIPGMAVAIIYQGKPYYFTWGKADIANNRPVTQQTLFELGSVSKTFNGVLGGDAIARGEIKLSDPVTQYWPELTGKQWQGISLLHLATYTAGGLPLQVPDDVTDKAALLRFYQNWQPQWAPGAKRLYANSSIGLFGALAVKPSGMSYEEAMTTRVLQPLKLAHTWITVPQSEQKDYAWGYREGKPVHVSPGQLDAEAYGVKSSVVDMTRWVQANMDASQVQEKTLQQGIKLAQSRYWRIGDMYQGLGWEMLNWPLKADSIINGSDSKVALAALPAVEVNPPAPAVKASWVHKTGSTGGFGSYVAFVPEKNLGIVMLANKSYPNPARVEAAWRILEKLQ
Description: (§2) (4) Resistant activity of each cephalosporin compound against β-lactamase, Proteus vulgaris GN 76 and Escherichia freundii GN 346:
(§3) The resistant activity of each cephalosporin compound against β-lactamase was measured in the manner described below.
(§4) β-lactamase was prepared from Proteus vulgaris GN 76 and Escherichia freundii GN 346. 10 ml of an overnight culture in Heart Infusion broth was diluted with 100 ml of a medium containing 2 g of yeast extract, 10 g of polypeptone, 2 g of glucose, 7 g of disodium hydrogen phosphate, 2 g of potassium dihydrogen phosphate, 1.2 g of ammonium sulfate and 0.4 g of magnesium sulfate, per liter, and incubated with shaking at 37° C. After incubation of 2 hrs, Penicillin G (50 μg/ml) was added as the inducer, and further incubated for 2 hrs. The resulting cells were collected by centrifugation (5,000 r.p.m.×10 min.) and washed two times with 0.1 M phosphate buffer (pH 7.0). Subsequently, the cells were subjected to sonication (20 KHz, 5 min.) and then centrifuged at 15,000 r.p.m. for 60 min. By using the supernatant of enzyme fluid, the stability of each compound against β-lactamase was determined by the iodometric assay method. Each numeral shown in Table 7-2 is a relative activity value calculated by assuming as 100 the activity of the control Cephalorizine.

[6] = molecular target: T1, β-lactamase, Proteus vulgaris GN 76 (Proteus vulgaris, UniProt P52664); assay: as above; type: biochemical; conditions: control Cephalorizine = 100
T1 construct: By using the supernatant of enzyme fluid; endogenous in cells; host or cells: Proteus vulgaris GN 76 (penicillin G-induced cells, sonicated, 15,000 r.p.m. supernatant)
T1 sequence (P52664 30-300): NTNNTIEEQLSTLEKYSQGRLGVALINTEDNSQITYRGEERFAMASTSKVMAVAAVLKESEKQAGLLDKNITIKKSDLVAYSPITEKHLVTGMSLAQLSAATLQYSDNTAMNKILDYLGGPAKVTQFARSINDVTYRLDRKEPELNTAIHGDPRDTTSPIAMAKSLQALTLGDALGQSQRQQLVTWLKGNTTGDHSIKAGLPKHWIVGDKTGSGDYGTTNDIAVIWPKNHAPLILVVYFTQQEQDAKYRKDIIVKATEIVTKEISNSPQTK
Description: as §2, §3, §4

| SMILES | MIC Escherichia coli NIHJ (Escherichia coli NIHJ) | MIC Klebsiella pneumoniae (Klebsiella pneumoniae [1]) | MIC Proteus vulgaris 3027 (Proteus vulgaris 3027) | MIC Pseudomonas aeruginosa I.F.O. [2] | MIC Staphylococcus aureus 209p [3] | MIC Staphylococcus aureus F-1 (Staphylococcus aureus) | MIC Staphylococcus aureus MS 8588 (Staphylococcus aureus) | MIC Staphylococcus aureus MS 8596 (Staphylococcus aureus) | MIC Staphylococcus aureus MS 8619 (Staphylococcus aureus) | MIC Staphylococcus aureus MS 8684 (Staphylococcus aureus) | MIC Escherichia coli GN 3435 (Escherichia coli) | MIC Escherichia coli GN 3452 (Escherichia coli) | MIC Escherichia coli GN 3465 (Escherichia coli) | MIC Escherichia coli K-2 (Escherichia coli) | MIC Escherichia coli K-4 (Escherichia coli) | MIC Pseudomonas aeruginosa GN (Pseudomonas aeruginosa) | MIC Pseudomonas aeruginosa GN4 (Pseudomonas aeruginosa) | MIC Pseudomonas aeruginosa GN 82 (Pseudomonas aeruginosa) | MIC Pseudomonas aeruginosa GN 221 (Pseudomonas aeruginosa) | MIC Pseudomonas aeruginosa GN 376 (Pseudomonas aeruginosa) | also measured |
| --- | --- | --- | --- | --- | --- | --- | --- | --- | --- | --- | --- | --- | --- | --- | --- | --- | --- | --- | --- | --- | --- |
| CCCCCCCCN1CCN(C(=O)N[C@@H](C(=O)NC2C(=O)N3C(C(=O)O)=C(CSc4nnnn4C)CSC23)c2ccccc2)C(=O)C1=O (single isomer, unassigned) [Compound No. 74] | 0.2 µg/mL (≈ 0.28 µM) | 0.79 µg/mL (≈ 1.11 µM) | 1.57 µg/mL (≈ 2.2 µM) | 12.5 µg/mL (≈ 17.5 µM) | 1.57 µg/mL (≈ 2.2 µM) | 0.78 µg/mL (≈ 1.09 µM) | 0.78 µg/mL (≈ 1.09 µM) | 0.78 µg/mL (≈ 1.09 µM) | 0.78 µg/mL (≈ 1.09 µM) | 0.78 µg/mL (≈ 1.09 µM) | 0.78 µg/mL (≈ 1.09 µM) | 1.56 µg/mL (≈ 2.19 µM) | 1.56 µg/mL (≈ 2.19 µM) | 3.13 µg/mL (≈ 4.38 µM) | 1.56 µg/mL (≈ 2.19 µM) | 25 µg/mL (≈ 35 µM) | 50 µg/mL (≈ 70 µM) | 25 µg/mL (≈ 35 µM) | 50 µg/mL (≈ 70 µM) | 50 µg/mL (≈ 70 µM) | MIC Pseudomonas aeruginosa GN 1035 (Pseudomonas aeruginosa): 25 µg/mL (≈ 35 µM); MIC Pseudomonas aeruginosa GN 1091 (Pseudomonas aeruginosa): 25 µg/mL (≈ 35 µM); MIC Pseudomonas aeruginosa GN 2565 (Pseudomonas aeruginosa): 50 µg/mL (≈ 70 µM); MIC Pseudomonas aeruginosa S-1 (Pseudomonas aeruginosa): 50 µg/mL (≈ 70 µM); MIC Klebsiella pneumoniae GN 917 (Klebsiella pneumoniae [4]): 1.56 µg/mL (≈ 2.19 µM); MIC Klebsiella pneumoniae GN 4081 (Klebsiella pneumoniae [4]): 1.56 µg/mL (≈ 2.19 µM); MIC Proteus mirabilis (Proteus mirabilis): 0.39 µg/mL (≈ 0.546 µM); MIC Proteus morganii (Proteus morganii): 0.78 µg/mL (≈ 1.09 µM); MIC Proteus vulgaris (Proteus vulgaris): 0.78 µg/mL (≈ 1.09 µM); MIC Proteus rettgeri (Proteus rettgeri): 6.25 µg/mL (≈ 8.76 µM); Relative activity (%) against β-lactamase, E. freundii GN 346 [5]: 0.03%; Relative activity (%) against β-lactamase, Pr. vulgaris GN 76 [6]: 5% |
| Cn1nnnc1SCC1=C(C(=O)O)N2C(=O)C(NC(=O)C(NC(=O)N3CCN(CCO)C(=O)C3=O)c3ccccc3)C2SC1 (single isomer, unassigned) [Compound No. 82] | < 0.1 µg/mL | 0.79 µg/mL (≈ 1.22 µM) | 0.79 µg/mL (≈ 1.22 µM) | 25 µg/mL (≈ 38.7 µM) | 1.57 µg/mL (≈ 2.43 µM) | 3.13 µg/mL (≈ 4.85 µM) | 3.13 µg/mL (≈ 4.85 µM) | 3.13 µg/mL (≈ 4.85 µM) | 1.56 µg/mL (≈ 2.42 µM) | 1.56 µg/mL (≈ 2.42 µM) | 1.56 µg/mL (≈ 2.42 µM) | 1.56 µg/mL (≈ 2.42 µM) | 6.25 µg/mL (≈ 9.68 µM) | 6.25 µg/mL (≈ 9.68 µM) | 1.56 µg/mL (≈ 2.42 µM) | 50 µg/mL (≈ 77.4 µM) | 50 µg/mL (≈ 77.4 µM) | 50 µg/mL (≈ 77.4 µM) | 25 µg/mL (≈ 38.7 µM) | 25 µg/mL (≈ 38.7 µM) | MIC Pseudomonas aeruginosa GN 1035 (Pseudomonas aeruginosa): 50 µg/mL (≈ 77.4 µM); MIC Pseudomonas aeruginosa GN 1091 (Pseudomonas aeruginosa): 50 µg/mL (≈ 77.4 µM); MIC Pseudomonas aeruginosa GN 2565 (Pseudomonas aeruginosa): 50 µg/mL (≈ 77.4 µM); MIC Pseudomonas aeruginosa S-1 (Pseudomonas aeruginosa): 100 µg/mL (≈ 155 µM); MIC Klebsiella pneumoniae GN 917 (Klebsiella pneumoniae [4]): 1.56 µg/mL (≈ 2.42 µM); MIC Klebsiella pneumoniae GN 4081 (Klebsiella pneumoniae [4]): 6.25 µg/mL (≈ 9.68 µM); MIC Proteus mirabilis (Proteus mirabilis): 3.13 µg/mL (≈ 4.85 µM); MIC Proteus morganii (Proteus morganii): 1.56 µg/mL (≈ 2.42 µM); MIC Proteus vulgaris (Proteus vulgaris): 0.78 µg/mL (≈ 1.21 µM); MIC Proteus rettgeri (Proteus rettgeri): 6.25 µg/mL (≈ 9.68 µM) |
| CCN1CCN(C(=O)NC(C(=O)NC2C(=O)N3C(C(=O)O)=C(CSc4nnnn4C)CSC23)c2ccc(O)cc2)C(=O)C1=O (stereo not shown) [Compound No. 72] | < 0.1 µg/mL | < 0.1 µg/mL | 0.4 µg/mL (≈ 0.62 µM) | 6.25 µg/mL (≈ 9.68 µM) | < 1.57 µg/mL | 1.56 µg/mL (≈ 2.42 µM) | 1.56 µg/mL (≈ 2.42 µM) | 3.13 µg/mL (≈ 4.85 µM) | 1.56 µg/mL (≈ 2.42 µM) | 1.56 µg/mL (≈ 2.42 µM) | 0.1 µg/mL (≈ 0.155 µM) | 0.2 µg/mL (≈ 0.31 µM) | 1.56 µg/mL (≈ 2.42 µM) | 0.39 µg/mL (≈ 0.604 µM) | 0.39 µg/mL (≈ 0.604 µM) | 12.5 µg/mL (≈ 19.4 µM) | 12.5 µg/mL (≈ 19.4 µM) | 6.25 µg/mL (≈ 9.68 µM) | 6.25 µg/mL (≈ 9.68 µM) | 6.25 µg/mL (≈ 9.68 µM) | MIC Pseudomonas aeruginosa GN 1035 (Pseudomonas aeruginosa): 25 µg/mL (≈ 38.7 µM); MIC Pseudomonas aeruginosa GN 1091 (Pseudomonas aeruginosa): 6.25 µg/mL (≈ 9.68 µM); MIC Pseudomonas aeruginosa GN 2565 (Pseudomonas aeruginosa): 25 µg/mL (≈ 38.7 µM); MIC Pseudomonas aeruginosa S-1 (Pseudomonas aeruginosa): 12.5 µg/mL (≈ 19.4 µM); MIC Klebsiella pneumoniae GN 917 (Klebsiella pneumoniae [4]): 0.2 µg/mL (≈ 0.31 µM); MIC Klebsiella pneumoniae GN 4081 (Klebsiella pneumoniae [4]): 1.56 µg/mL (≈ 2.42 µM); MIC Proteus mirabilis (Proteus mirabilis): 0.78 µg/mL (≈ 1.21 µM); MIC Proteus morganii (Proteus morganii): 0.78 µg/mL (≈ 1.21 µM); MIC Proteus vulgaris (Proteus vulgaris): 0.39 µg/mL (≈ 0.604 µM); MIC Proteus rettgeri (Proteus rettgeri): 1.56 µg/mL (≈ 2.42 µM); Relative activity (%) against β-lactamase, E. freundii GN 346 [5]: 0.2%; Relative activity (%) against β-lactamase, Pr. vulgaris GN 76 [6]: 7% |
